Like-named read-outs stand apart in the source and are kept apart here.
Columns and labels:
Assay type in all cases: cell-based
[1] = tested on: endogenous FGF receptors in 3Tc7/EGFr cells; experiment: FGF-induced BrdU incorporation assay; conditions: read-out: FGF-Induced BrdU Incorp. IC50
Procedure: The cellular/catalytic assays described herein are performed in an ELISA format. The general procedure is as follows: a compound is introduced to cells expressing the test kinase, either naturally or recombinantly, for a selected period of time after which, if the test kinase is a receptor, a ligand known to activate the receptor is added. The cells are lysed and the lysate is transferred to the wells of an ELISA plate previously coated with a specific antibody recognizing the substrate of the enzymatic phosphorylation reaction. Non-substrate components of the cell lysate are washed away and the amount of phosphorylation on the substrate is detected with an antibody specifically recognizing phosphotyrosine compared with control cells that were not contacted with a test compound. The cellular/biologic assays described herein measure the amount of DNA made in response to activation of a test kinase, which is a general measure of a proliferative response. The general procedure for this assay is as follows: a compound is introduced to cells expressing the test kinase, either naturally or recombinantly, for a selected period of time after which, if the test kinase is a receptor, a ligand known to activate the receptor is added. After incubation at least overnight, a DNA labeling reagent such as Bromodeoxyuridine (BrdU) or 3H-thymidine is added. The amount of labeled DNA is detected with either an anti-BrdU antibody or by measuring radioactivity and is compared to control cells not contacted with a test compound.
FGF-Induced BrdU incorporation Assay
This assay measures FGF-induced DNA synthesis in 3Tc7/EGFr cells that express endogenous FGF receptors.
Materials and Reagents: • 1. FGF: human FGF2/bFGF (Gibco BRL, No. 13256-029). • 2. BrdU Labeling reagent, (10 mM PBS (pH 7.4), Boehringer Mannheim Cat No. 1 647 229). • 3. Fixdenat fixation solution (Boehringer Mannheim Cat No. 1 647 229). • 4. Anti-BrdU-POD (mouse monoclonal antibody conjugated with peroxidase, Boehringer Mannheim Cat. No. 1 647 229). • 5. TMB (tetramethylbenzidine, Boehringer Mannheim Cat. No. 1 647 229). • 6. PBS washing solution, pH 7.4 (Sugen, Inc.). • 7. Albumin, bovine (BSA), fraction V powder (Sigma Chemical Co., Cat. No. A-8551)
Procedure • 1. 3T3 engineered cell line: 3T3c7/EGFr. • 2. Cells are seeded at 8,000 cells/well in DMEM, 10% CS and 2 mM Gln in a 96-well plate. Incubate 24 hours at 37° C. in 5% CO2. • 3. After 24 hours, wash cells with PBS then serum starve in serum free medium (0% DMEM, 0.1% BSA) for 24 hours. • 4. Add ligand (FGF2 (1.5 nM in DMEM with 0.1% BSA) and test compound simultaneously. Negative control wells receive serum free DMEM with 0.1% BSA only, positive control wells receive FGF2 ligand but no test compound. Test compounds are prepared in serum-free DMEM with ligand in a 96-well plate and serially diluted to make seven (7) test concentrations. • 5. After 20 hours, add diluted BrdU labeling reagent (1:100 BrdU:DMEM, 0.1% BSA, final concentration is 10 μM) to the cells and incubate for 1.5 hours. • 6. Decant medium. Remove traces of material with paper towel. Add FixDenat (50 μl/well) and incubate at room temperature for 45 minutes on a plate shaker. • 7. Remove Fixdenat solution. Add blocking solution (5% dehydrated milk in PBS (200 μl/well)) and incubate for 30 minutes at room temperature on a plate shaker. • 8. Decant blocking solution, wash wells once with PBS. Add anti-BrdU-POD solution (1:100 dilution in PBS, 0.1% BSA), incubate for 90 minutes at room temperature on a plate shaker. • 9. Decant antibody conjugate, rinse wells 5 times with PBS. Dry plate by inverting on paper towel and tapping. • 10. Add TMB solution (100 μl/well), incubate 20 minutes at room temperature on a plate shaker until color development is sufficient for photometric detection. • 11. Measure absorbance at 410 nm on a Dynatech ELISA plate reader using “Dual wavelength” mode with a filter at 490 nM. Biochemical EGFR Assay

[2] = tested on: HUV-EC-C cells (VEGF, Flk-1/KDR); experiment: HUV-EC-C assay, VEGF-stimulated 3H-thymidine incorporation; conditions: Homo sapiens, read-out: HUVEC-VEGF IC50
Procedure: (§1) Repeat the wash two more times with D-PBS, resuspend the cells in-about 1 ml assay medium/15 cm^2 of tissue culture flask. […] Add cells to 96-well flat-bottom plates at 100 μl/well or 0.8-1.0×10^4 cells/well, incubate −24h at 37° C., 5% CO2.
(§2) Use the same assay medium as mentioned in day 0, step 2 above. Titrations are made by adding 90 μl/well of test compound at 200 μM (4× the final well concentration) to the top well of a particular plate column. Since the stock test compound is usually 20 mM in DMSO, the 200 μM drug concentration contains 2% DMSO.
(§3) A diluent made up to 2% DMSO in assay medium (F12K+0.5% fetal bovine serum) is used as diluent for the test compound titrations in order to dilute the test compound but keep the DMSO concentration constant. Add this diluent to the remaining wells in the column at 60 μl/well. Take 60 μl from the 120 μl of 200 μM test compound dilution in the top well of the column and mix with the 60 μl in the second well of the column. Take 60 μl from this well and mix with the 60 μl in the third well of the column, and so on until two-fold titrations are completed. When the next-to-the-last well is mixed, take 60 μl of the 120 μl in this well and discard it. Leave the last well with 60 μl of DMSO/media diluent as a non-test compound-containing control. […] In triplicate, add 50 μl/well of 80 μg/ml VEGF, 20 ng/ml ECGF, or media control to each test compound condition. As with the test compounds, the growth factor concentrations are 4× the desired final concentration. Use the assay media from day 0 step 2 to make the concentrations of growth factors.
Freeze plates overnight at −20° C.

[3] = tested on: HUV-EC-C cells (aFGF, FGF-R); experiment: cells; conditions: Homo sapiens, HUVEC, read-out: HUVEC aFGF IC50
Procedure: as §1, §2, §3
Freeze plates overnight at −20° C.

| Compound | IC50 [1] | IC50 [2] | IC50 ([3]; aFGF-stimulated) | IC50 [3] |
| --- | --- | --- | --- | --- |
| O=C(O)CCc1c(/C=C2\C(=O)Nc3ccc(Cl)cc32)[nH]c2c1CCCC2 [Example 191, 3-[2-(5-Chloro-2-oxo-1,2-dihydroindol-3-ylidenemethyl)-4,5,6,7-tetrahydro-1H-indol-3-yl]-propionic acid] | 23.6 µM | 0.04 nM | 250 nM |  |
| O=C(O)CCc1c(/C=C2\C(=O)Nc3ccc(Br)cc32)[nH]c2c1CCCC2 [Example 192, 3-[2-(5-Bromo-2-oxo-1,2-dihydroindol-3-ylidenemethyl)-4,5,6,7-tetrahydro-1H-indol-3yl]-propionic acid] |  | 0.3 nM |  |  |
| Cc1ccc2c(c1)/C(=C/c1[nH]c3c(c1CCC(=O)O)CCCC3)C(=O)N2 [Example 194, 3-[2-(5-Methyl-2-oxo-1,2-dihydroindol-3-ylidenemethyl)-4,5,6,7-tetrahydro-1H-indol-3-yl]-propionic acid] |  | 1 nM |  |  |
| COc1ccc2c(c1)NC(=O)/C2=C\c1[nH]c2c(c1CCC(=O)O)CCCC2 [Example 196, 3-[2-(6-Methoxy-2-oxo-1,2-dihydroindol-3-ylidenemethyl)-4,5,6,7-tetrahydro-1H-indol-3-yl]-propionic acid] |  | 20 nM | 1600 nM |  |
| CN(C)C(=O)CCc1c(/C=C2\C(=O)Nc3ccccc32)[nH]c2c1CCCC2 [Example 197, N,N-Dimethyl-3-[2-(2-oxo-1,2-dihydroindol-3-ylidenemethyl)-4,5,6,7-tetrahydro-1H-indol-3-yl]-propionamide] | > 50 µM | < 3 nM | 202000 nM |  |
| CN(C)CCCc1c(/C=C2\C(=O)Nc3ccccc32)[nH]c2c1CCCC2 [Example 198, 3-[3-(3-Dimethylaminopropyl)-4,5,6,7-tetrahydro-1H-indol-2-ylmethylene]-1,3-dihydroindol-2-one] | > 50 µM |  |  |  |
| NC(=O)CCc1c(/C=C2\C(=O)Nc3ccccc32)[nH]c2c1CCCC2 [Example 199, 3-[2-(2-Oxo-1,2-dihydroindol-3-ylidenemethyl)-4,5,6,7-tetrahydro-1H-indol-3-yl]-propionamide] | > 50 µM | < 30 nM | 100 nM |  |
| O=C1Nc2ccccc2/C1=C/c1[nH]c2c(c1CCC(=O)N1CCOCC1)CCCC2 [Example 200, 3-[3-(3-Morpholin-4-yl-3-oxopropyl)-4,5,6,7-tetrahydro-1H-indol-2-ylmethylene]-1,3-dihydroindol-2-one] | > 50 µM |  |  |  |
| CNC(=O)CCc1c(/C=C2\C(=O)Nc3ccccc32)[nH]c2c1CCCC2 [Example 201, N-Methyl-3-[2-(2-oxo-1,2-dihydroindol-3-ylidenemethyl)-4,5,6,7-tetrahydro-1H-indol-3-yl]-propionamide] | > 50 µM | < 30 nM | 160 nM |  |
| O=C(CCc1c(/C=C2\C(=O)Nc3ccccc32)[nH]c2c1CCCC2)NCCN1CCOCC1 [Example 202, N-(2-Morpholin-4-ylethyl)-3-[2-(2-oxo-1,2-dihydroindol-3-ylidenemethyl)-4,5,6,7-tetrahydro-1H-indol-3-yl]-propionamide] | > 50 µM | < 30 nM |  |  |
| Cc1c[nH]c(/C=C2\C(=O)Nc3ccccc32)c1CCC(=O)O [Example 215, 3-[4-Methyl-2-(2-oxo-1,2-dihydroindol-3-ylidenemethyl)-1H-pyrrol-3-yl]-propionic acid] | 25 µM |  |  | 1100 nM |
| Cc1c[nH]c(/C=C2\C(=O)Nc3ccc(Cl)cc32)c1CCC(=O)O [Example 216, 3-[2-(5-Chloro-2-oxo-1,2-dihydroindol-3-ylidenemethyl)-4-methyl-1H-pyrrol-3-yl]-propionic acid] |  | < 70 nM |  |  |
| COc1ccc2c(c1)NC(=O)/C2=C\c1[nH]cc(C)c1CCC(=O)O [Example 217, 3-[2-(6-Methoxy-2-oxo-1,2-dihydroindol-3-ylidenemethyl)-4-methyl-1H-pyrrol-3-yl]-propionic acid] | > 50 µM |  |  |  |
| Cc1c[nH]c(/C=C2\C(=O)Nc3cccc(C)c32)c1CCC(=O)O [Example 218, 3-[2-(4-Methyl-2-oxo-1,2-dihydroindol-3-ylidenemethyl)-4-methyl-1H-pyrrol-3-yl]-propionic acid] | > 50 µM | < 70 nM |  |  |
| Cc1c[nH]c(/C=C2\C(=O)Nc3ccc(Br)cc32)c1CCC(=O)O [Example 220, 3-[2-(5-Bromo-2-oxo-1,2-dihydroindol-3-ylidenemethyl)-4-methyl-1H-pyrrol-3-yl]-propionic acid] | > 50 µM | 40 nM |  |  |

Reference: patent US6855730B2, “3-methylidenyl-2-indolinone modulators of protein kinase” (Sugen, Inc., priority 1998, dated 2005)
